In data set [1] the test system is HepG2 cells. The data set is described as follows: Apoptosis assay, Annexin V-FITC/PI double staining. The class given is cell-based. The following applies: 1 μM CPT, 24 h. The protocol:
The apoptosis induction effect of conjugates on HepG2 cells was detected by Annexin V-FITC/PI double staining method. […] After 24 h, the cells were trypsinized (without EDTA), washed with PBS (containing 2% BSA), stained by 5 μL of Annexin V-FITC and 5 μL of 100 μg/mL PI, and re-suspended in 500 μL of binding buffer. After 15 min incubation, cells were determined by flow cytometer.

For data set [2], the system named is H22 tumor-bearing mice. The data set is described as follows: Toxicity in the efficacy study (body weight, H&E staining). Format: in vivo. Particulars: for H&E histology of liver and spleen: 1 mg/kg CPT i.v., day 12. As to the method: (§1) The tumor-bearing mice were randomly divided into five groups (10 per group). The control group mice were administered saline. […] Body weights were recorded daily. At day 12, four mice of each group were sacrificed by carbon dioxide asphyxiation. Tumors, livers and spleens were collected and fixed with 10% paraformaldehyde for 48 h. These tissues were cut into […] sections and processed for H&E staining. The remaining […] in each group were also sacrificed, and the tumors were collected and weighed.

The nature of data set [3]: Pharmacokinetic study after intravenous administration. The class given is in vivo. The following applies: rats; for maximum plasma drug concentration: 1.5 mg/kg CPT i.v., 5 min post administration. The protocol:
The rats were fasted for 12 h with free access to water before the experiment. Briefly, 0.5 ml of blood was collected in centrifuge tubes at predefined times of 0.083, 0.33, 0.5, 1, 2, 4, 8, 12, and 24 h. Blood samples were centrifuged at 15,000 rpm for 15 min at 4 °C to isolate plasma fractions. Then, 100 μL of methanol was added to the plasma, and the mixture was extracted with 2 mL hexane and 1 mL dichloromethane. The mixture was vortexed for 10 min and centrifuged at 15,000 rpm for 15 min, and the supernatant was collected and dried using a stream of nitrogen gas. The resultant residue was redissolved in 200 μL methanol and stored at −20 °C until further analysis.

For data set [4], the system named is HepG2 cells. The data set can be described thus: Subcellular localization by CLSM. The class given is cell-based. Particulars: 1 μM CPT, 4 h. The protocol: HepG2 and L02 cells were seeded on cover glasses embedded in 24-well culture plates at densities of 5 × 10^4 cells/well. After 24 h, conjugates were added at a 1 μM CPT concentration and co-incubated with the cells for 4 h at 37 °C. Then, after the conjugate solutions were removed, the cells were treated with 50 nM MitoTracker deep red for 30 min and 10 mM Basic Orange 14 for 10 min to stain mitochondria and nuclei, respectively (Paleos et al., [2016]). Then, the cells were fixed with 4% paraformaldehyde, washed three times with ice-cold PBS (pH 7.4), and visualized using CLSM.

Data set [5] deals with HepG2 cells. The data set can be described thus: Cell-cycle analysis by flow cytometry (PI). Particulars: 1 μM CPT, 24 h, control cells 21.30%. The class given is cell-based. As to the method: The cell-cycle percentage of HepG2 was analyzed using flow cytometer. […] After 24 h, the cells were trypsinized, washed with PBS, and fixed with 4 °C pre-cooling 70% ethanol overnight at −20 °C. […] Finally, the cells were stained with propidium iodide (PI) solution for 20 min and determined by flow cytometer.
A general note: Flow cytometry measures light scatter and fluorescence of single cells or particles in a stream.

A further data set concerns HepG2 MCTS. The data set is described as follows: Uptake in multicellular tumor spheroids (MCTS), CLSM. The class given is cell-based. Particulars: 1 μM, 8 h, 100 µm depth. As to the method: Besides that, a multicellular tumor spheroids (MCTS) model, which was more suitable for mimicking the tumor microenvionment, was also employed as a supplement to monolayer cell model for better estimating in vitro targeting efficacy (Kunz-Schughart, [1999]). MCTS model was established by the liquid overlay method as described before (Friedrich et al., [2008]). Briefly, HepG2 cells were seeded in 96-well plates coated with 2% agarose at 2 × 10^3 cells per well and incubated for 5 d. […] Thereafter, MCTS were collected by centrifugation, washed with PBS, and observed by confocal laser scanning microscope (CLSM) (Olympus FV1000, Tokyo, Japan) at 100 µm depth of the MCTS (about the middle section of the sphere).

Data set [6] deals with HepG2 cells (GLUT1-overexpressing). Particulars: 1 μM CPT, flow cytometry.
Protocol: HepG2 and L02 cells were seeded into 96-well culture plates at a density of 1.2 × 10^4 cells/well and incubated for 24 h. After the confluency and morphology were checked, 1 μM conjugates (calculated from CPT) were added to each well and co-incubated with the cells for different times (1, 4, and 8 h). […] The D-GLU was a substrate as well as inhibitor of GLUT1. Then, the GPCC conjugate was co-incubated with the cells for 4 h. At the end of the incubation time, the conjugate solutions were withdrawn from the wells, and the cells were washed three times with cold PBS. After fixation with 4% paraformaldehyde, the cells were qualitatively analyzed by fluorescence microscopy (IX71, Olympus, Tokyo, Japan). After trypsinization and re-suspension of the cells in PBS (pH 7.4), the fluorescence intensity was quantitatively analyzed by flow cytometry (BD FACSAria III, Piscataway, NJ).
In data set [7] the test system is H22 tumor-bearing mice. As to the method:
(§2) An H22 tumor-bearing mice model was established based on previously reported method (Li et al., [2014]). Ascitic fluid containing H22 cells was extracted and diluted with PBS (pH 7.0) to 1 × 10^7 cells/ml. The mice (20–22 g) were anesthetized with 5% chloral hydrate and subcutaneously injected with 0.2 ml of cell suspension for armpit tumor implantation. All animal studies were approved by the China Animal Care and Use Committee and carried out according to the Guide for the Care and Use of Laboratory Animals of Beijing University of Chinese Medicine.
as §1

Data set [8] in a line: In vitro CPT release by dialysis in PBS with GSH. Format: physicochemical. The following applies: compared with MPCC and GPCC. As to the method: A dialysis method was used to determine the in vitro CPT release of conjugates. Conjugates at concentrations of 1 mg/ml were placed in dialysis bags (MWCO 3500 Da) and immersed in 50 ml PBS (pH 7.4) containing different concentrations of GSH (0 μM, 10 μM and 10 mM) to mimic various cellular microenvironment conditions. The drug release was conducted at 100 rpm and 37 °C. During dialysis, 1 ml aliquots were withdrawn from the release medium at predefined intervals, and 1 ml of fresh release medium was added to maintain a constant total volume. The CPT concentrations were determined by HPLC.

The nature of data set [9]: Particle size by dynamic light scattering (DLS). Format: physicochemical. The following applies: conjugates at 10 mg/ml. As to the method:
The particle sizes and zeta potential of different conjugates at 10 mg/ml were determined using a dynamic light scattering (DLS) particle size analyzer (Nicomp 380 Zeta Potential/Particle Sizer, Santa Barbara, CA). Following staining with 2% sodium phosphotungstate solution, the conjugate morphologies were observed using transmission electron microscopy (TEM) at an accelerating voltage of 100 kV (JEM 1400 JOEL, Akishima City, Tokyo Prefecture, Japan).

The test system of data set [10] is H22 tumor-bearing mice. The data set is described as follows: In vivo and ex vivo imaging of tumor targeting. Particulars: in vivo imaging, 1 mg/kg CPT i.v. The protocol: as §2
Mice were intravenously injected with conjugates at 1 mg/kg CPT concentration. […] Afterward, the tumor-bearing mice were immediately sacrificed by carbon dioxide asphyxiation. Subsequently, major organs (such as tumor, liver, spleen, brain, heart, kidney, and lung) were harvested and visualized.

A further data set deals with L02 cells. The data set can be described thus: MTT cytotoxicity. Format: cell-based. Particulars: 24 h.
Where [11] appears, read: rat, plasma, iv, 1.5 mg/kg, 1.5 mg CPT/kg i.v., two-compartment model.
Setting [12] is: 1.5 mg CPT/kg i.v., two-compartment model.

Like-named read-outs stand apart in the source and are kept apart here.

Protocol for L02 cells: The cytotoxicity of different conjugates on HepG2 and L02 cells was determined using 3-(4,5-dimethyl-2-thiazolyl)-2,5-diphenyl-2-H-tetrazolium bromide (MTT) method. The cells were seeded in 96-well culture plates at a density of 5 × 10^3 cells/well. Then the cells were treated with conjugates and free CPT at CPT concentrations ranging from 3 nM to 20 μM at 37 °C for 24 h when 60–70% confluence was reached. After that, the drug solution was replaced with MTT at a concentration of 5 mg/mL, and co-incubated with cells for another 4 h. The supernatant was discarded and adding with 150 μL DMSO to dissolve the MTT-formazan. The absorbance at 492 nm was recorded using a microplate reader.

Turning to `CC[C@@]1(O)C(=O)OCc2c1cc1n(c2=O)Cc2cc3ccccc3nc2-1` [CPT, camptothecin], in the data set on HepG2 cells [1], the apoptosis induction effect result is on record as “highest apoptosis induction effect”. Besides, the body weight change result in the data set on H22 tumor-bearing mice [2] (1 mg/kg CPT i.v. on days 0, 2, 4, 6, 8, 10) is listed as “smallest increase”. Further, the “H&E histology of liver and spleen” value with H22 tumor-bearing mice [2] was “significant hepatotoxicity and spleen toxicity”. Besides, in data set [3] (setting [11]), the total exposure AUC(0-inf) – broadly, total exposure, with the tail of the curve extrapolated – was found to be 753 ± 92 ng·h/mL; the exposure AUC(0-t) – broadly, exposure summed from dosing to a finite time, without extrapolation to infinity – was 748 ± 92 ng·h/mL; the time of peak concentration (Tmax) – broadly, the time from dosing to the highest level – turned out to be 1.98 min; the clearance (commonly a measure of how efficiently the substance is removed, as volume per time) is 33.6 mL/min/kg. Further, the half-life (as a rule, the time needed for the level to fall by half in the phase considered) in data set [3] (setting [11]) is 9.9 ± 8.04 min. Moreover, the Cmax (in general, the maximum level reached in the sampled fluid or tissue) in data set [3] (rat, plasma, iv, 1.5 mg/kg, 1.5 mg CPT/kg i.v., two-compartment model, read-out: Cmax) amounted to 917 ± 50 ng/mL. Moreover, in [3] (rat, plasma, iv, 1.5 mg/kg, 1.5 mg CPT/kg i.v., two-compartment model, read-out: MRT(0–t)), the MRT last is 2.4 ± 0.288 h. Further, the MRT inf in data set [3] (rat, plasma, iv, 1.5 mg/kg, 1.5 mg CPT/kg i.v., two-compartment model, read-out: MRT(0–∞)) came to 2.59 ± 0.291 h. Further, the Vd in data set [3] (rat, plasma, iv, 1.5 mg/kg, 1.5 mg CPT/kg i.v., two-compartment model, read-out: V (apparent volume of distribution)) stood at 10.6 ± 1.18 L/kg. In addition, in data set [3], the “maximum plasma drug concentration” value came out at 0.92 µg/mL. Further, in the data set with HepG2 cells [4], the subcellular localization entry is “hardly observed in the cells”. Moreover, in the data set on HepG2 cells [5], the S phase percentage worked out at 27.49%.

On to “Glucose–PEG–PAMAM-s-s–Camptothecin-Cy7 [GPCC]”, for which, in the data set with HepG2 cells [1], the apoptosis induction effect result is on record as “increased obviously”. The “cellular uptake in MCTS” value with HepG2 MCTS is “obviously stronger cellular uptake than the MPCC conjugate”. The “cellular uptake relative to MPCC” value in data set [6] is “approximately two-fold”. Moreover, the subcellular localization entry in the data set on HepG2 cells [4] is “accumulated in HepG2 nuclei more than the MPCC conjugate”. In the data set with HepG2 cells [5], this molecule came in with a S phase percentage of 37.15%. Moreover, the tumor inhibition entry in the data set on H22 tumor-bearing mice [7] (1 mg/kg CPT i.v. on days 0, 2, 4, 6, 8, 10, versus CPT suspension and other conjugate groups, p < .05) is “significantly better tumor inhibition rates”. For the same molecule, the “H&E histology of tumor tissue” value in the data set with H22 tumor-bearing mice [7] (1 mg/kg CPT i.v., day 12) is listed as “widespread necrosis in tumor tissues”. Further, in the data set on H22 tumor-bearing mice [7] (1 mg/kg CPT i.v., end of experiment, p < .05), the tumor weight result is reported as “significantly less than that of the MPCC conjugate”.

For the molecule PAMAM–CPT–Cy7 [PCC], the CPT release rate result in data set [8] is on record as “slightly increased release rate”. Further, the “particle size (DLS)” value in data set [9] was determined as 17.6 nm. For the same molecule, the “H&E histology of liver and spleen” value with H22 tumor-bearing mice [2] is “significant hepatotoxicity and spleen toxicity”. In [3] (setting [12]), the “AUC(0–t)” value was 3594 ± 665 ng·h/mL, the “AUC(0–∞)” value was found to be 4038 ± 505 ng·h/mL, the CL was 6.27 ± 0.767 mL/min/kg and the Cmax was 2530 ± 330 ng/mL. For the same molecule, in data set [3] (setting [12]), the “MRT(0–t)” value came out at 5.042 ± 0.225 h, the “MRT(0–∞)” value came out at 9.566 ± 6.991 h, the “V (apparent volume of distribution)” value was 5.104 ± 3.531 L/kg and the t1/2 came out at 0.398 ± 0.045 h. Moreover, in data set [3], the “maximum plasma drug concentration” value was 2.53 µg/mL. Further, the “fluorescence in tumor sites” value in the data set on H22 tumor-bearing mice [10] was “slight fluorescence”. For the same molecule, in the data set on HepG2 MCTS, the “cellular uptake in MCTS” value is given as “obviously stronger cellular uptake than the MPCC conjugate”. Further, the subcellular localization result in the data set on HepG2 cells [4] was “accumulated in the nuclei of the HepG2 cells”. The S phase percentage in the data set with HepG2 cells [5] worked out at 34.7%.

Take mPEG–PAMAM–CPT–Cy7 [MPCC]: the cytotoxicity result in the data set on L02 cells is recorded as “lower than that of PCC”. For the same molecule, in [9], the “particle size (DLS)” value amounted to 19.6 nm. Besides, in data set [3] (setting [12]), the “AUC(0–t)” value is 4677 ± 654 ng·h/mL, the “AUC(0–∞)” value turned out to be 4895 ± 620 ng·h/mL, the CL came to 5.17 ± 0.617 mL/min/kg and the Cmax is 3807 ± 144 ng/mL. Moreover, in data set [3] (setting [12]), the “MRT(0–t)” value is listed as 4.341 ± 0.9 h, the “MRT(0–∞)” value is on record as 5.81 ± 1.141 h, the “V (apparent volume of distribution)” value came to 3.207 ± 1.638 L/kg and the t1/2 is 0.258 ± 0.027 h. In data set [3], the “maximum plasma drug concentration” value is 3.81 µg/mL. Moreover, the “time of maximum distribution at tumor sites” value with H22 tumor-bearing mice [10] is 4 h. The molecule also came in with a S phase percentage in the data set with HepG2 cells [5] of 32.94%.

(Values after PMC6058575, “Enhanced anti-hepatocarcinoma efficacy by GLUT1 targeting and cellular microenvironment-responsive PAMAM–camptothecin conjugate” (Drug Delivery, 2017).)
